# Source: patent US6777176B1, “Target system” (priority 1997, dated 2004)
# pIC50: −log10 of the molar value. Residues, ends and D or L forms follow the SMILES beside them. No end group written: not given here.
# Target: T1, PTS Enzyme I (Escherichia coli, UniProt P08839)
# T1 construct: made in house
# Test: Inhibition of sugar uptake assay (enzyme I dependent GlcNAc phosphorylation), low molecular weight compounds
# Type: biochemical, E. coli
# Settings: compounds at 25-200 μM, DMSO control taken as 100%; read-out: Activity against PTS Enzyme I IC50
# Text: To find inhibitors of Enzyme I of the PTS by high throughput screening, an in vitro assay based on spectrophotometric read out at 340 nm has been set up. The assay comprises of three major components: purified enzyme I in catalytic amounts, PEP as the phosphoryl donor substrate, and purified HPr as the phosphoryl acceptor substrate. The assay couples the formation of pyruvate from PEP with its reduction to lactate, catalyzed by lactate dehydrogenase. The disappearance of NADH, cofactor required by lactate dehydrogenase, is monitored colorimetrically at 340 nm. The assay is done in a U-shaped microtiter plate format, and quantitation is done using microplate absorbance reader.
# Reaction mixtures, each 100 μl, are used in the assay. Each reaction mixture contains 0.8 mM PEP, 0.2 mM NADH, 3 μg lactate dehydrogenase (Boehringer Mannheim), 50 mM KPi pH=7.5, 2.5 mM dithiothreitol, 2.5 mM NaF, 5 mM MgCl2, and between 25 and 200 μM of one of the organic compounds to be tested. […]
# Once the inhibitors of Enzyme I of the PTS are identified by high throughput screening, inhibition of enzyme I dependent sugar phosphorylation activity is measured with the inhibition of sugar uptake assay detailed below.
# This assay measures the inhibition of enzyme I dependent sugar phosphorylation activity. […] Activity is expressed as nmoles of sugar-P formed after 30 min. […]
row,Compound,pIC50
1,"Cc1cc(-c2onc(C)c2C(=O)Sc2ccc(Cl)cc2)no1 [5,3′-Dimethyl-[3,5′]-biisoxazolyl-4′-carbothioic acid-S-(4-chloro-phenyl) ester]",4.30
2,"O=C1NN=C(c2ccccc2)CC1Cc1ccc(O)cc1 (centres unmarked) [4-(4-Hydroxy-benzyl)-6-phenyl-4,5-dihydro-2H-pyridazin-3-one]",4.70

# Target: T2, enzyme I (Escherichia coli, UniProt P08839)
# T2 construct: made in house
# Test: biochemical
# Type: biochemical, E. coli
# Settings: in vitro PTS activity, purified HPr, enzyme I and IIGlcNAc, 30 min at 37° C.; Table I; read-out: inhibition IC50
# Text: (d) Inhibition of in vitro PTS activity. The inhibitory activity of soluble compounds can be measured quantitatively in the sugar phospbotransferase assay in the presence of the purified PTS proteins and with [^14C]GlcNAc ([^14C]N-acetyl-glucosamine) or [^14C]Glc ([[…] as terminal phosphate acceptor (Erni et al., 1982 J. Biol. Chem. 257:13726-13730).
# Inhibition of phosphotransferase activity by soluble peptides. This assay measures the inhibition of enzyme I dependent sugar phosphorylation activity. […] The purified N-acetylglucosamine transporter (II^GlcNAc) of E. coli (Mukhija and Erni, 1996) was used as the sugar specific component. The reaction mixture contained per 100 μl, 100 μg phosphatidyl glycerol from egg yolk (Sigma), 50 mM KPi, pH 7.5, 2.5 mM dithiothreitol, 2.5 mM NaF, 5 MM MgCl2, 1 mM phosphoenolpyruvate (potassium salt, Sigma), 0.5 mM [U-^14C]GlcNAc (New England Nuclear; 56.3 mCi/mmol, diluted to 1000 cpm/nmol), and 3 μM each of purified HPr and enzyme I (Mao et al., 1995 J. Biol. Chem. 270:5258-5265). The reaction was started by addition of 0.1 μg of II^GlcNAc. After incubation for 30 min at 37° C., the reaction was stopped by adding 1 ml ice-cold water. GlcNAc-6-Phosphate was separated from free Glc-NAc by anion-exchange chromatography on AG-1-X2 (50-100 mesh, Biorad). Activity is expressed as nmoles of sugar-P formed after 30 min. The HPr concentration was adjustedsuch that it was rate limiting in the overall phosphotransferase reaction. The inhibitory peptides were added to concentrations of 25 μm to 10 mM. Phosphorylation of GlcNAc in the absences of peptide was taken as 100%.
row,Compound,pIC50
1,CSCC[C@H](NC(C)=O)C(=O)N[C@@H](CCCNC(=N)N)C(=O)N[C@@H](CC(C)C)C(=O)N[C@@H](CC(C)C)C(=O)N[C@@H](CCCCN)C(=O)N[C@H](C(=O)N[C@@H](CC(C)C)C(=O)N[C@@H](CS)C(=O)N[C@@H](Cc1ccccc1)C(=O)N[C@H](C(=O)NCC(=O)N[C@@H](CC(C)C)C(=O)N[C@@H](CS)C(=O)NCC(=O)O)C(C)C)[C@@H](C)O [compound 19] (Ac-MRLLKTLCFVGLCG-OH),< 2.00
2,CSCC[C@H](N)C(=O)N[C@@H](CCCNC(=N)N)C(=O)N[C@@H](CC(C)C)C(=O)N[C@@H](CC(C)C)C(=O)N[C@@H](CCCCN)C(=O)N[C@H](C(=O)N[C@@H](CC(C)C)C(=O)N[C@@H](CS)C(=O)N[C@@H](Cc1ccccc1)C(=O)NCC(=O)N[C@@H](CC(C)C)C(=O)N[C@@H](CS)C(=O)NCC(=O)O)[C@@H](C)O [compound 18] (H-MRLLKTLCFGLCG-OH; N-terminus and C-terminus assumed),2.46

# Same assay, conditions: peptides from support-based combinatorial libraries; Table 2
row,Compound,inhibition IC50
1,KKFALRK [compound 21],none

# Target: T2, enzyme I
# Test: Pyruvate formation coupled to lactate dehydrogenase (uncoupling / phosphatase activity)
# Type: biochemical, E. coli
# Settings: Table 2
# Text: The assay can be performed in microtiter plates and quantitated with a microplate photoreader. Another assay to monitor phosphatase activity of soluble compounds is based on the detection of pyruvate which is continuously produced from phosphoenolpyruvate whenever enzyme I is dephosphorylated. The enzyme I-specific phosphatase activity of soluble compounds can be detected from the pyruvate burst. The rate of pyruvate formation is monitored with lactate dehydrogenase and NADH. The assay can be performed in microtiter plates and quantitated with a microplate photoreader.
row,Compound,uncoupling P1/peptide/h [P1/peptide/h]
1,KKWHKRKK [compound 27],0.215
2,"HPr protein: small (9 kD) soluble phosphorylcarrier protein HPr, natural phosphoryl acceptor of enzyme I",2.70
3,KKFHIRKR [compound 28],0.31
4,XXKKWHLRKRXX [compound 23],0.43
5,KGWHKRKK [compound 25],0.23
6,"KKFHLRK [compound 20, KKFHLRK]",0.49
7,KKWHRRKK [compound 26],0.29
8,KKWHLRKR [compound 24],0.3
9,"KKFDLRK [compound 22, KKFDLRK]",0.05

# Same assay, conditions: μM NADH consumed per μM peptide per one hour multiplied by the IC50 (μM)
row,Compound,uncoupling P1/peptide (x IC50/h)
1,KISRHGRPTG [compound 6],479.3
2,SGRKSTRVHHWLLVL [compound 2],6.6
3,RIHFIPRRGR [compound 7],39.6
4,"MSRHRN [compound 16, MSRHRN]",143.8
5,GLRGKTRVHYLVLG [peptide 1],3.2
6,KISRHGKRGK [compound 5],1.9
7,"RLHYLF [compound 8, RLHYLF]",64.2
8,Ac-DGARLHYLF [compound 10],15.2
9,KMSRHRKPGA [compound 3],22.2
10,DGARLHYLF [compound 9],132.3

# Test system: not listed separately
# Test: Growth inhibition MIC (Table 2)
# Type: cell-based
# Settings: not given
row,Compound,growth inhibition MIC [µM]
1,XXKKWHLRKRXX [compound 23],44.7

# Test system: E. coli K-12 UT580
# Test: Growth inhibition assay, filter discs on LB soft agar
# Type: cell-based
# Settings: area of clear zone around filter disc, over night at 37° C.
# Procedure: FIG. 4. Growth inhibition of E. coli K12 UT580.
# Growth inhibition assay. […] To each filter was added 10 μl of one of the different peptide stock solutions (20 μM to 80 μM). […] Compare FIG. 4 and Table I on the following two pages.
row,Compound,growth inhibition (area/μM)
1,SGRKSTRVHHWLLVL [compound 2],3.05
2,"RHITLF [compound 15, RHITLF]",0.27
3,RIHFIPRRGR [compound 7],0.77
4,"RHWSIF [compound 11, RHWSIF]",1.30
5,GLRGKTRVHYLVLG [peptide 1],3.65
6,"RLHYLF [compound 8, RLHYLF]",0.90
7,"RHYLLF [compound 13, RHYLLF]",0.83
